From US20100105610A1, “Methods of Inhibiting Tumor Cell Aggressiveness Using the Microenvironment of Human Embryonic Stem Cells” (CHILDREN'S MEMORIAL HOSPITAL, priority 2006, published 2010)

Legend:
Type in all cases: cell-based, human
[1] = system: C8161 cells; assay: Membrane Invasion Culture System (MICS) invasion assay; details: C8161 cells treated with ALK 4/5/7 inhibitor
Source text: Bars represent the mean, normalized, invasion indices±standard deviations.
The aggressiveness of tumor cells is correlated with their ability to invade through the extracellular matrix; thus, the effect of hESC microenvironments on melanoma cell invasion was investigated.
The Membrane Invasion Culture System (MICS) chamber is used to evaluate the degree of tumor cell invasion through matrices in vitro (both stimulated and unstimulated) as described previously.

[2] = system: Notch 1, 2 and 4; assay: Notch expression, Western blot in C8161 cells
Source text: Western blot analysis of C8161 cells 72 hrs following the administration of siRNA. […] Western blot analysis of Notch 1, 2 and 4 in C8161 cells treated with the Nodal inhibitor SB431542.

[3] = system: C8161 cells; assay: Vasculogenic mimicry of C8161 cells; details: C8161 cells treated with ALK 4/5/7 inhibitor
[4] = system: VE-Cadherin, Keratin 18; assay: Western blot of vasculogenic mimicry plasticity biomarkers in C8161 cells; details: C8161 cells on 3-D collagen I matrices for 6 days
Method: (A) Western blot analyses of Nodal, phosphorylated SMAD-2, total SMAD 2/3, and Actin in C8161 cells 48 hours after administration of either vehicle or an ALK 4/5/7 inhibitor (SB431542, 1 μM, 10 μM). […] (B) Western blot analyses of Nodal, Tyrosinase and Actin in C8161 cells 24 hours after the administration of either vehicle or different concentrations of ALK inhibitor while (C) is a Western analyses for VE-Cadherin, Keratin 18 and Actin in C8161 cells cultured on 3-D collagen I matrices for 6 days in the presence of vehicle or different concentrations of ALK inhibitor.

[5] = system: Nodal; assay: Nodal protein expression, Western blot
Method: (§1) Protein lysates were prepared and quantified as previously described in Hess et al., 2001, Cancer Res. 61:3250-3255. Equal amounts of protein were separated by SDS-polyacrylamide gel electrophoresis under reducing conditions, and the resolved proteins were transferred onto Immobilon-P membranes (Millipore Corp., Bedford, Mass.). Membranes were blocked in 1% TBS, 0.1% Tween 20 (TBS-T) and 5% dry milk powder or 3% gelatin (for Nodal Westerns). Blots were incubated with anti-Nodal or anti-Lefty antibodies (Polyclonal rabbit anti-Nodal (H-110) 1:500 Santa Cruz Biotechnology, Santa Cruz, Calif.; Polyclonal goat anti-Lefty 1:500 R&D Systems, Minneapolis, Minn.), washed in TBS-T, and incubated with the appropriate horseradish peroxidase-labeled secondary antibody. Secondary antibodies were detected by enhanced chemiluminescence (Super Signal; Pierce, Rockford, Ill.) and exposure to autoradiography film (Molecular Technologies, St Louis, Mo.). Nodal protein was detected as two major bands at ˜48 and ˜35 kDa representing precursor and pro-Nodal respectively. Nodal often appeared as multiple bands, likely due to degradation of protein modifications. All experiments were done at least three times.
Conditioned matrices were prepared using hESCs, melanocytes, myoepithelial cells, amniotic fluid derived stem cells, or trophoblast cells on growth factor-reduced Matrigel (14 mg/mL; BD Biosciences) as previously described. Postovit et al., 2006, Stem Cells 24: 501-505. In all cases, cells were 80-100% confluent during the conditioning of the matrix. Alternatively, hESC-derived Lefty protein was seeded into Matrigel prior to polymerization. Human melanoma (C8161) or breast carcinoma (MDA-MB-231) cells, 2.5×10^5 cells/6-well dish, were subsequently exposed to this preconditioned matrix for 3 to 4 days.
as §1, with “primary antibody (Table 2),” for “anti-Nodal or anti-Lefty antibodies (Polyclonal rabbit anti-Nodal (H-110) 1:500 Santa Cruz Biotechnology, Santa Cruz, Calif.; Polyclonal goat anti-Lefty 1:500 R&D Systems, Minneapolis, Minn.),”, “TBS-T or TBS-T containing 0.5M NaCl for the Nodal Westerns,” for “TBS-T,”, “Nodal often appeared as multiple bands, likely due to degradation of protein modifications. All experiments were done at least three times.” left out

[6] = system: Lefty; assay: Lefty knockdown in hESCs with FITC-tagged Morpholinos (microscopy, Western blot)
Source text: Cancer cells were also exposed to Matrigel conditioned by hESCs in which Lefty protein expression was knocked down with FITC-tagged Morpholino oligonucleotides specific for Lefty-A and Lefty-B (MO^LEFTY). […] The expression of Oct-3/4 and Nanog, representative of hESC pluripotency, was not affected during this time, and the morphology of the hESC colonies was not altered.
Nodal, and Lefty protein expression were inhibited using anti-sense Morpholino oligonucleotides (Gene Tools Inc., Philomath, Oreg.). The Morpholino sequences were selected based on manufacturer's recommendations (21-25 mer antisense). Fluoroscein (FITC)-conjugated control (5′-[…]-3′) [SEQ ID NO: 19], Nodal (5′-[…]-3′) [SEQ ID NO: 20], Lefty-A (5′-[…]-3′) [SEQ ID NO: 21], and Lefty-B (5′[…]-3′) [SEQ ID NO: 22]. Morpholinos (20 μM) were delivered using the scrape method. Topczewska et al., 2006. Cancer cells were sorted for FITC and were recovered for 1 day prior to experimentation.

[7] = system: H9 hESCs; assay: hESC pluripotency (Oct-3/4 and Nanog expression, colony morphology); details: Oct-3/4, Nanog
Source text: (A) An abundance of the Nodal inhibitor Lefty within the hESC conditioned matrices (CMTX). Lefty protein is absent in the C8161 cells within its own conditioned matrix (C8161+CMTX). (B) Immunofluorescence localization of FITC-conjugated anti Lefty Morpholinos (MO^LEFTY) in H9 hESC colonies on Matrigel. (C) Western blot analysis of Lefty protein in H9 hESCs treated with either vehicle (Control), MO^Control (MO Control), or MO^Lefty (MO Lefty). Actin is used as a loading control. (D) Real Time RT-PCR analysis of Oct-3/4 and Nanog expression in H9 hESCs treated with either vehicle (H9), MO^CONTROL (MO Control), or MO^LEFTY (MO Lefty). Gene levels were normalized using 18s and bars represent mean gene expression normalized to H9. (E) Real Time RT-PCR analysis of Nodal mRNA expression in C8161 cells cultured for 3 days on control (unconditioned) Matrigel, Matrigel conditioned by hESCs (H9 CMTX) or Matrigel conditioned by hESCs in which Lefty protein expression was […] with Lefty-specific Morpholinos (H9 CMTX MO Lefty). (F) Western blot analysis of Nodal protein in human metastatic melanoma (C8161) and breast carcinoma (MDA-MB-231) cells exposed for 3 days to either control (unconditioned) Matrigel or to Matrigel seeded with Lefty protein purified from hESCs (H9-derived Lefty). […]

[8] = system: C81-61 cells; assay: Soft agar colony formation, C81-61; details: C81-61 cell line
Method: (§2) An in vitro colony forming assay was used to analyze colony-forming ability of poorly aggressive C81-61 cells, aggressive C8161 cells, C8161 cells treated with MONodal and C8161 cells treated with MONodal and rescued with recombinant Nodal (100 ng/mL). The assay was conducted using 50,000 cells suspended in 0.35% agarose in RPMI containing 10% serum, which were plated into 6-well dishes on 0.5% agar in the same medium. Colonies grew, and pictures were taken at day 7. After 2 weeks, colonies were stained with Crystal Violet and counted.
(§3) Clonogenicity of cells are assessed as previously described. Hamburger, A. W., and Salmon, S. E., 1977, Science 197:461-463. Each parameter is tested in triplicate for clone formation in soft agar. Briefly, […] are plated in 60 mm Petri dishes in complete medium placed over the soft agar. On specific days after the cells are plated, phase contrast images of the colonies are taken using a Zeiss Axiovert 25 with an Hitachi HCV-20 color camera.

[9] = system: MDA-MB-231 cells; assay: Anchorage independent growth / soft agar colony formation, MDA-MB-231; details: 100 ng/mL
Method: as §3
(§4) Anchorage independent growth assays were conducted as previously described. Topczewska et al., 2006, Nat. Med. 12: 925-932.

[10] = system: C8161 cells; assay: Anchorage independent growth / soft agar colony formation, C8161; details: 100 ng/mL
Method: as §2, §3, §4

NC(=O)c1ccc(-c2nc(-c3ccc4c(c3)OCO4)c(-c3ccccn3)[nH]2)cc1 [SB431542]
invasive ability [1]: reduction | Notch expression [2]: relatively unaffected | vasculogenic mimicry [3]: abrogation | expression of vasculogenic mimicry plasticity biomarkers [4]: reduction | Nodal expression ([5]; C8161 cells, 1 μM, 10 μM, 48 hours): down-regulation

MO^LEFTY: FITC-tagged Morpholino oligonucleotides specific for Lefty-A and Lefty-B (SEQ ID NO: 21, 22) (chain 1 GCCACATGGTGCTGCCCTGGG; chain 2 CTGCATGGTGCTGCCCTGGAGGA; all phosphorodiamidate morpholino (PMO); FITC (fluorescein) conjugated, position not given here)
Lefty protein expression in hESCs ([6]; H9 hESCs, Western blot, for up to 3 days): efficiently knocked down | hESC colonies in which the fluorescently-tagged Morpholinos could be detected ([6]; microscopy of treated hESC colonies): over 75% | stem cell differentiation [7]: did not induce stem cell differentiation

B1: rLefty: recombinant Lefty-B (R&D Systems) (protein, UniProt O75610 77-366, looked up)
Left-right determination …: RFSQSFREVAGRFLALEASTHLLVFGMEQRLPPNSELVQAVLRLFQEPVPKAALHRHGRLSPRSARARVTVEWLRVRDDGSNRTSLIDSRLVSVHESGWKAFDVTEAVNFWQQLSRPRQPLLLQVSVQREHLGPLASGAHKLVRFASQGAPAGLGEPQLELHTLDLGDYGAQGDCDPEAPMTEGTRCCRQEMYIDLQGMKWAENWVLEPPGFLAYECVGTCRQPPEALAFKWPFLGPRQCIASETDSLPMIVSIKEGGRTRPQVVSLPNMRVQKCSCASDGALVPRRLQP
dose needed to inhibit Nodal protein relative to hESC counterpart ([5]; C8161 cells): higher doses | Nodal expression ([5]; C8161 cells exposed 48 hrs to 0-1000 ng/mL): reduces

B2: recombinant Nodal: recombinant Nodal (R&D Systems) (protein, UniProt Q96S42 238-347, looked up)
Nodal homolog: HHLPDRSQLCRKVKFQVDFNLIGWGSWIIYPKQYNAYRCEGECPNPVGEEFHPTNHAYIQSLLKRYQPHRVPSTCCAPVKTKPLSMLYVDNGRVLLDHHKDMIVEECGCL
colony formation [8]: did not induce colony formation | rescue of inhibition of in vitro clonogenicity ([9]; MDA-MB-231 cells exposed to H9 CMTX): partially rescued | rescue of inhibition of in vitro clonogenicity ([9]; MDA-MB-231 cells exposed to H9 Lefty-containing matrix): completely rescued | rescue of inhibition of in vitro clonogenicity ([10]; C8161 cells exposed to H9 CMTX): partially rescued | rescue of inhibition of in vitro clonogenicity ([10]; C8161 cells exposed to H9 Lefty-containing matrix): completely rescued | rescue of reduced colony formation ([10]; C8161 cells treated with MONodal): rescued
